This is an account of results in patent US20260008775A1, “AZOLE MODULATORS OF CHOLESTEROL BIOSYNTHESIS AND THEIR USE FOR PROMOTING REMYELINATION” (GENENTECH, INC., priority 2022, published 2026).

The test system of one assay is EpiSC-derived OPCs. In words: In vitro phenotypic screening of OPCs, MBP high-content imaging (percentage of oligodendrocytes). It is filed as cell-based, mouse. To be noted: Mus musculus, 72 h, 3 days, MBP stain, dose-response 0.5 nM to 1000 nM; read-out: OPC EC50. As to the method:
To assess effects of treatments on OPCs, all treatments were assayed in two or more independent platings of epiblast stem cell-derived OPCs (EpiSC). EpiSC-derived OPCs were obtained using in vitro differentiation protocols and culture conditions described previously (Najm et al, 2011, Nature Methods). OPCs were expanded and frozen down in aliquots. OPCs were thawed into growth conditions for at least one passage before use in further assays.
EpiSC-derived OPCs were grown and expanded in poly-L-ornithine (PO) and laminin-coated flasks in N2B27 media (DMEM/F12 (Gibco), N2-MAX (R&D Systems), B-27 (ThermoFisher), and GlutaMax (Gibco)) supplemented with FGF2 (10 μg/mL, R&D systems, 233-FB-025) and PDGF-AA (10 μg/mL, R&D systems, 233-AA-050) before harvesting for experiments. The cells were seeded onto poly-L-ornithine or poly-D-lysine coated CellCarrier Ultra plates (PerkinElmer) coated with laminin (Sigma, L2020) at a density of 150,000/cm^2 in N2B27 media without growth factors. For dose-response testing, a 1000× compound stock in dimethyl sulphoxide (DMSO) was added to assay plates, resulting in 8-point dose curves with final concentrations between 1000 nM and 0.5 nM. Positive controls and DMSO vehicle controls were included in each assay plate. Cells were incubated under standard conditions (37° C., 5% CO2) for 3 days and fixed with 4% paraformaldehyde (PFA) in phosphate buffered saline (PBS) for 20 min. Fixed plates were washed with PBS, permeabilized with 0.1% Triton X-100, and blocked with 10% donkey serum (v/v) in PBS for 40 min. Then, cells were labelled with MBP antibodies (Abcam, ab7349; 1:200) for 2 h at room temperature, washed with PBS, and stained with Alexa Fluor conjugated secondary antibodies (1:500) for 45 min. Nuclei were visualized by DAPI staining (Sigma; […]), followed by further PBS washes.
Cells and cell culture plates were imaged on the Operetta High Content Imaging and Analysis system (PerkinElmer). Analysis (PerkinElmer Harmony and Columbus software) began by identifying intact nuclei stained by DAPI. The peri-nuclear region of each cell was then cross-referenced with the mature myelin protein (MBP) stain to identify oligodendrocyte nuclei, and from this the percentage of oligodendrocytes was calculated. EC50 values were calculated using The Levenberg-Marquardt algorithm to fit a Hill equation to dose-response data (0.5 nM to 1000 nM).

Assay [1] addresses human emopamil binding protein and human 7-dehydrocholesterol reductase (hEBP-DHCR7) (Homo sapiens (Human), UniProt Q15125). In words: hEBP-DHCR7 radioligand binding assay (filter binding, membranes of co-expressing HEK293 cells). As to conditions: competition with [3H] radioligand, 8 doses 0.06 to 5000 nM, Ki calculated from IC50. Put shortly:
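Compound, either single dose 1 μM or eight 5-fold dilutions from 0.06 to 5000 nM, competed with a [3H]-labelled ligand added at 25 nM for binding to co-expressing HEK293 membranes. IC50 came from nonlinear regression, with full block and DMSO as controls, then Cheng–Prusoff conversion to Ki.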

The subject of assay [2] is zymostenol accumulation (EBP) in EpiSC-derived OPCs. In words: GC/MS-based sterol profiling, zymostenol accumulation in EpiSC-derived OPCs. Type of assay: cell-based, mouse. To be noted: Mus musculus, 24 h, EpiSC-derived OPCs, 24 hr, 8 doses from 0.15 nM to 333 nM; read-out: Mouse Zymostenol GCMS EC50. Put shortly:
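Zymostenol level is expressed relative to that after 24 h with 100 nM positive-control reference, measured by full-scan GC/MS (m/z 458) with cholesterol-d7 internal standard after BSTFA derivatisation. Cells were EpiSC-derived OPCs, 100,000/well in N2B27 without growth factors, treated 24 h, from two or more independent platings.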

Chain of human emopamil binding protein and human 7-dehydrocholesterol reductase (hEBP-DHCR7) (Q15125 whole entry): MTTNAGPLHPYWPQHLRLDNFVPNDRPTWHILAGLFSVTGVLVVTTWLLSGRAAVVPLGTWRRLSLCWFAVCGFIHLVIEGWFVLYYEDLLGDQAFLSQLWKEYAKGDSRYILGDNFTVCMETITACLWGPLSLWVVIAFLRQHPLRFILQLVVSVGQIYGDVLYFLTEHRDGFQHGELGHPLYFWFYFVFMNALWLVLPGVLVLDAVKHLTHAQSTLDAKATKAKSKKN

For the molecule `CC(C)n1nc(-c2ccc(C(F)(F)F)c(F)c2)nc1[C@H]1CC[C@@H](N2CCOCC2)C1` (single isomer, unassigned) [Compound 111*], the EC50 worked out at 6.15 nM in the assay with EpiSC-derived OPCs and 1.64 nM in assay [2]. In addition, in assay [1], the Ki is 45 nM.

On to `CC(C)n1nc(-c2ccc(C(F)(F)F)c(F)c2)nc1[C@H]1CC[C@H](N2CCOCC2)C1` (single isomer, unassigned) [Compound 112*], for which the EC50 in the assay on EpiSC-derived OPCs came to 196 nM; in assay [2] it was 23.8 nM. In addition, in assay [1], the Ki was 90.8 nM.

`CC(C)n1nc(-c2ccc(C(F)(F)F)c(F)c2)nc1[C@@H]1CC[C@H](N2CCOCC2)C1` (single isomer, unassigned) [Compound 113*]: the half-maximal effective concentration (EC50) with EpiSC-derived OPCs was 4.81 nM; in assay [2], 1.85 nM. In assay [1], the Ki is 9.73 nM.

As to `CC(C)n1nc(-c2ccc(C(F)(F)F)c(F)c2)nc1[C@@H]1CC[C@@H](N2CCOCC2)C1` (single isomer, unassigned) [Compound 114*], the figures for the EC50 (in the assay with EpiSC-derived OPCs; in assay [2]) were 25.7 nM and 8 nM, respectively. The Ki in assay [1] was 14.7 nM.

With `CC(C)n1nc(-c2cncc(C(F)(F)F)c2)nc1[C@H]1CC[C@@H](N2CCOCC2)C1` (single isomer, unassigned) [Compound 118*], the EC50 was 93.2 nM with EpiSC-derived OPCs and 11.5 nM in assay [2]. In addition, the Ki in assay [1] is 32.2 nM.

Take `CC(C)n1nc(-c2cnc(C(F)(F)F)nc2)cc1[C@H]1CC[C@@H](N2CCO[C@H](CF)C2)C1` (single isomer, unassigned) [Compound 133*]: the EC50 with EpiSC-derived OPCs came to 274 nM; in assay [2], 21.2 nM. In addition, the Ki in assay [1] was 17.1 nM.

Turning to `CC(C)n1nc([C@H]2CC[C@H](C(F)(F)F)CC2)nc1[C@H]1[C@@H]2C[C@@H](N3CCOC[C@H]3C)C[C@@H]21` (single isomer, unassigned) [Compound 165*], the values for the EC50 (in the assay with EpiSC-derived OPCs; in assay [2]) were 35 nM and 4.55 nM, respectively. In assay [1], the Ki was 40.4 nM.

On to `CC(C)n1nc([C@H]2CC[C@@H](C(F)(F)F)CC2)nc1[C@H]1[C@@H]2C[C@H](N3CCOC[C@H]3C)C[C@@H]21` (single isomer, unassigned) [Compound 166*], for which the EC50 in the assay with EpiSC-derived OPCs stood at 108 nM; in assay [2], 30.5 nM. In addition, in assay [1], the Ki is 41 nM.

Turning to `CC(C)n1nc([C@H]2CC[C@@H](C(F)(F)F)CC2)nc1[C@H]1[C@@H]2C[C@@H](N3CCOC[C@H]3C)C[C@@H]21` (single isomer, unassigned) [Compound 167*], the EC50 in the assay on EpiSC-derived OPCs turned out to be 29 nM; in assay [2], 3.58 nM. Also, the Ki in assay [1] was 25.1 nM.

As for `CC(C)n1nc(-c2ccc(C(F)(F)F)nc2)nc1[C@H]1CC[C@@H](N2CCO[C@H](CF)C2)C1` (single isomer, unassigned) [Compound 169], the results for the EC50 (with EpiSC-derived OPCs; in assay [2]) were 6.2 nM and 7.6 nM, respectively. Further, the Ki in assay [1] is 30.2 nM.

Turning to `Cc1ccccc1-c1cc([C@H]2[C@@H]3C[C@H](N4CCCOCC4)C[C@@H]32)n(C(C)C)n1` (single isomer, unassigned) [Compound 197*], the figures for the EC50 (with EpiSC-derived OPCs; in assay [2]) were 10.1 nM and 5.46 nM, respectively. The Ki in assay [1] is 9.87 nM.

Consider `Cc1ccccc1-c1cc([C@H]2[C@@H]3C[C@@H](N4CCCOCC4)C[C@@H]32)n(C(C)C)n1` (single isomer, unassigned) [Compound 198*], for which the EC50 is 105 nM in the assay with EpiSC-derived OPCs and 41.3 nM in assay [2]. In addition, the Ki in assay [1] was 20.2 nM.

`CC(C)n1nc(-c2cccc(OC(F)F)c2)cc1[C@H]1[C@@H]2C[C@H](N3CCCOCC3)C[C@@H]21` (single isomer, unassigned) [Compound 199*]: the EC50 in the assay on EpiSC-derived OPCs stood at 4.01 nM; in assay [2], 2.06 nM. In addition, the Ki in assay [1] is 8.2 nM.

With `CC(C)n1nc(-c2cccc(OC(F)F)c2)cc1[C@H]1[C@@H]2C[C@@H](N3CCCOCC3)C[C@@H]21` (single isomer, unassigned) [Compound 200*], the values for the EC50 (in the assay on EpiSC-derived OPCs; in assay [2]) were 36.7 nM and 13.7 nM, respectively. Also, in assay [1], the Ki is 11.6 nM.

As to `CC(C)n1nc(-c2ccc(OC(F)F)cc2)cc1[C@H]1[C@@H]2C[C@H](N3CCCOCC3)C[C@@H]21` (single isomer, unassigned) [Compound 201*], the EC50 in the assay with EpiSC-derived OPCs was found to be 24.5 nM; in assay [2], 8.23 nM. The Ki in assay [1] is 11 nM.

In the case of `CC(C)n1nc(-c2cccc(C(F)(F)F)n2)nc1[C@@H]1CCC(N2CCOCC2)C1` (stereo in doubt) [26*, 4-((1S,3R)-3-(1-isopropyl-3-(6-(trifluoromethyl)pyridin-2-yl)-1H-1,2,4-triazol-5-yl)cyclopentyl)morpholine], the results for the EC50 (in the assay on EpiSC-derived OPCs; in assay [2]) were 85 nM and 11.7 nM, respectively. The Ki in assay [1] is 22.6 nM.

For the molecule `CC(C)n1nc(-c2cncc(C(F)(F)F)c2)cc1[C@H]1CC[C@@H](N2CCOCC2)CC1` [1*, 4-((1s,4s)-4-(1-isopropyl-3-(5-(trifluoromethyl)pyridin-3-yl)-1H-pyrazol-5-yl)cyclohexyl)morpholine], the values for the EC50 (with EpiSC-derived OPCs; in assay [2]) were 80.6 nM and 20.9 nM, respectively. The Ki in assay [1] was 38.9 nM.

With `CC(C)n1nc(-c2cncc(C(F)(F)F)c2)cc1[C@H]1CC[C@H](N2CCOCC2)CC1` [2*, 4-((1r,4r)-4-(1-isopropyl-3-(5-(trifluoromethyl)pyridin-3-yl)-1H-pyrazol-5-yl)cyclohexyl)morpholine], the EC50 with EpiSC-derived OPCs is 97.5 nM; in assay [2] it was 17 nM. The Ki in assay [1] was 40.5 nM.

As to `CCn1nc(-c2ccc(C(F)(F)F)nc2)nc1[C@H]1CC[C@@H](N2CCCOCC2)CC1` [7*, 4-((1s,4s)-4-(1-ethyl-3-(6-(trifluoromethyl)pyridin-3-yl)-1H-1,2,4-triazol-5-yl)cyclohexyl)-1,4-oxazepane], the EC50 in the assay with EpiSC-derived OPCs was 158 nM; in assay [2], 26.3 nM. The Ki in assay [1] was 135 nM.

Turning to `CCn1nc(-c2ccc(C(F)(F)F)nc2)nc1[C@H]1CC[C@H](N2CCCOCC2)CC1` [8*, 4-((1r,4r)-4-(1-ethyl-3-(6-(trifluoromethyl)pyridin-3-yl)-1H-1,2,4-triazol-5-yl)cyclohexyl)-1,4-oxazepane], the EC50 in the assay on EpiSC-derived OPCs is 280 nM; in assay [2] it was 44.8 nM. Besides, the Ki in assay [1] is 38.2 nM.

For `CC(C)n1nc(-c2cccc(C(F)(F)F)c2)nc1[C@H]1[C@@H]2C[C@H](N3CCOCC3)C[C@@H]21` [19*, 4-((1R,3r,5S,6r)-6-(1-isopropyl-3-(3-(trifluoromethyl)phenyl)-1H-1,2,4-triazol-5-yl)bicyclo[3.1.0]hexan-3-yl)morpholine], the figures for the EC50 (with EpiSC-derived OPCs; in assay [2]) were 140 nM and 7.92 nM, respectively. The Ki in assay [1] is 9.93 nM.

Consider `CC(C)n1nc(-c2ccc(C(F)(F)F)nc2)nc1[C@@H]1CC[C@H](N2CCCOCC2)C1` [Compound 4, 4-((1S,3R)-3-(1-isopropyl-3-(6-(trifluoromethyl)pyridin-3-yl)-1H-1,2,4-triazol-5-yl)cyclopentyl)-1,4-oxazepane], for which the EC50 is 38.7 nM with EpiSC-derived OPCs and 12.3 nM in assay [2]. For the same molecule, the Ki in assay [1] was 8.28 nM.

With `CC(C)n1nc(-c2ccc(C(F)(F)F)nc2)nc1[C@H]1CC[C@H](N2CCCOCC2)C1` [Compound 5, 4-((1S,3S)-3-(1-isopropyl-3-(6-(trifluoromethyl)pyridin-3-yl)-1H-1,2,4-triazol-5-yl)cyclopentyl)-1,4-oxazepane], the EC50 in the assay with EpiSC-derived OPCs came out at 196 nM; in assay [2], 44.2 nM. Besides, in assay [1], the Ki is 52.7 nM.

Turning to `CC(C)n1nc(-c2ccc(C(F)(F)F)nc2)nc1[C@H]1CC[C@@H](N2CCCOCC2)C1` [Compound 6, 4-((1R,3S)-3-(1-isopropyl-3-(6-(trifluoromethyl)pyridin-3-yl)-1H-1,2,4-triazol-5-yl)cyclopentyl)-1,4-oxazepane], the EC50 worked out at 34.3 nM in the assay with EpiSC-derived OPCs and 10.5 nM in assay [2]. Further, in assay [1], the Ki is 34.7 nM.

One may read the EC50 as the concentration giving half of the maximal effect. By Ki is commonly meant the dissociation constant of the complex between target and ligand, obtained from inhibition or displacement.
